Patent US11020408B2, “Polymer composed of repeat units having a biologically active molecule attached thereto via a pH-sensitive bond” (SPIREA LIMITED, priority 2014, dated 2021)

Test system: Mycobacterium bovis BCG-lux grown in human monocyte-derived macrophages
Format: cell-based

| Compound | effect on BCG-lux viability (in words) | antibiotic efficacy (in words) | antimycobacterial activity (in words) | increase of BCG-lux bioluminescence compared to untreated cells | reduction of BCG-lux bioluminescence | viability lower than control cells |
| --- | --- | --- | --- | --- | --- | --- |
| CC[C@@H](CO)NCCN[C@@H](CC)CO [EMB, ethambutol] | did not reduce BCG-lux viability | – | – | – | – | – |
| NNC(=O)c1ccncc1 [INH, isoniazid] | – | equivalent to the antibiotic efficacy of E80 nanoparticles | no antimycobacterial activity | 32% | 53% | 15% |
